The source of these data is patent publication US20040219600A1, “Method for determining sensitivity to environmental toxins and susceptibility to parkinson's disease” (priority 2002, published 2004).

The test system of one series is SNpc neurons. The experiment in a line: Count of TH-positive SNpc cells one week after subcutaneous MPTP. The note with it: 80 mg/kg MPTP SC (4 x 20 mg/kg).
In series [1] the test system is postnatal substantia nigra (SN) neurons. The series is described as follows: MPTP-induced cell loss in postnatal substantia nigra cultures. The note with it: for loss of T-positive neurons: MPTP 50×10-9. The class given is cell-based, mouse.
Series [2] deals with glutathione S-transferase pi2 (GSTp2) mRNA. The series is described as follows: Real time PCR of GSTp2 mRNA in substantia nigra after MPTP. The class given is in vivo, mouse. To be noted: for expression of GSTp2: C57B1/6 mice; for GSTp2 levels: SW mice. An excerpt:
Using real time PCR technology we are able to measure relative or absolute mRNA levels in from very small sample pools. The RT-PCR reaction includes a forward primer, a primer with a fluorescent 5′ reporter dye and a 3′ quencher dye, and a reverse primer, constructed to hybridize with the target of interest. The 5′ to 3′ activity of the DNA polymerase cleaves the primer between the reporter and the quencher only if the primer hybridizes to the target. The primer is then displaced from the target, polymerization of the strand continues, and the produce accumulates with each cycle. The exponential amplification of product correlates with the initial number of target molecules when normalized to an endogenous reference, and the threshold cycle calculated (a cycle during which there is an exponential accumulation of produce occurring), as long as the efficiency of the target amplification and the efficiency of the reference amplification are approximately equal. To examine the mRNA expression levels of GSTp2, we used real time PCR analysis to examine baseline levels in C57B1/6 and SW mice. […] The expression pattern in SW mice is different.
Higuchi et al (Higuchi R, et al., Simultaneous Amplification and Detection of Specific DNA Sequences, Biotech. (NY) 10:413-17 (1992)) pioneered the analysis of PCR kinetics by constructing a system that detects PCR products as they accumulate. This “real-time” system includes the intercalator ethidium bromide in each amplification reaction, an adapted thermal cycler to irradiate the samples with ultraviolet light, and detection of the resulting fluorescence with a computer-controlled cooled CCD camera. mRNA amplification produces increasing amounts of double-stranded DNA, which binds ethidium bromide, resulting in an increase in fluorescence. By plotting the increase in fluorescence versus cycle number, this method allows one to make precise quantitative measurements of mRNA expression. […]
Higuchi et al (Higuchi R, et al., Simultaneous Amplification and Detection of Specific DNA Sequences, Biotechnology (N Y) 10:413-17 (1992)) pioneered the analysis of PCR kinetics by constructing a system that detects PCR products as they accumulate. This “real-time” system includes the intercalator ethidium bromide in each amplification reaction, an adapted thermal cycler to irradiate the samples with ultraviolet light, and detection of the resulting fluorescence with a computer-controlled cooled CCD camera. Amplification produces increasing amounts of double-stranded DNA, which binds ethidium bromide, resulting in an increase in fluorescence. By plotting the increase in fluorescence versus cycle number, this method […] allows one to make precise quantitative measurements of mRNA expression.
We will be quantitating levels of glutathione S-transferase pi2 mRNA using this technique in place of traditional Northern blots since we have a limited amount of material to generate mRNA and real-time PCR amplification can give precise results with a small amount of sample material. […] Quantitative measurements are made based on the amount of fluorescence detected by amplification of the intervening primer. Details of this method are presented in numerous papers such as (Freeman W M, et al., Quantitative RT-PCR: Pitfalls and Potential. Biotechniques 26:112-122, 124-115 (1999)) as well as from the ABI website. […]

Series [3] has as its system embryonic midbrain neurons. To be noted: C57B1/6 and Swiss-Webster cultures from embryonic midbrain; cited from earlier work.

Protocol for SNpc neurons: C57BL/6J (Jackson Laboratory), Swiss-Webster (SWR, Harlan) and C57BL/6J×SWR used in these experiments were between 3 and 5 months of age. […] All animals were generated within our vivarium at St. Jude Children's Hospital and were maintained on a 12:12 hour light: dark cycle with ad libitum food and water. Animals were treated in accord with Animal Care and Use Committee requirements. The analysis presented here is based on neuroanatomical and morphometric data from 58 animals, all of which were genotyped as described below.
Each animal was given a total of 80 mg/kg of MPTP, using a dosage regimen of 4 equal subcutaneous injections of 20 mg/kg, one given every 2 hours. Mice were monitored over the next 24 hours for the degree of mortality and the presence of seizures. […]
Prior to counting TH-positive cells, the rostral to caudal boundaries of the SNpc were identified (German, D. C., et al., The Neurotoxin MPTP Causes Degeneration of Specific Nucleus A8, A9 and A10 Dopaminergic Neurons in the Mouse, Neurodegeneration, 5:299-312 (1996)). […] TH-positive cells within the SNpc in one section per slide were counted using a 20× objective (total magnification 200×). […] The number of cells in the SNpc from several animals were also counted using unbiased stereological measurements using the Bioquant image analysis system (R & 1 Biometrics, Nashville, Tenn.).

In the case of `CN1CC=C(c2ccccc2)CC1` [MPTP, 1-methyl-4-phenyl-1,2,3,6-tetrahydropyridine], the figures for the “number of SNpc neurons following MPTP treatment” value in the series on SNpc neurons (C57B1/6 animals) and with SNpc neurons (SWR animals) were 3300±200 and 5480+/−239, respectively. Further, the results for the “loss of T-positive neurons” value in series [1] (SN cultures derived from SWR mice) and in series [1] (SN cultures from C57B1/6 mice) were 10±3% and 50±5%, respectively. The “percent cell loss in vitro as fraction of the in vivo value” in series [1] (in vitro SN culture versus in vivo) is reported as “approximately 80%”. Further, the “expression of GSTp2” value is on record as 50% in series [2] (24 hours after MPTP) and “increases” in series [2] (eight hours after the first injection of MPTP). Besides, the results for the GSTp2 levels entry in series [2] (8 hours after administration of MPTP) and in series [2] (24 hours after MPTP) were “decrease” and “return to baseline levels”, respectively. Moreover, the “lower induction of glutathione S-transferase pi2 in C57B1/6 mice compared to Swiss-Webster” value in series [2] (forty eight hours after MPTP administration) was 50%. Besides, the cell death entry in series [3] is “little cell death”.
